SMILES strings stand for the structures.

From patent publication US7544687B2, “Substituted α-piperazinyl phenylpropionic acid derivatives as hPPAR α and/or hPPAR γ agonists” (Beijing Molecule Science and Technology Co., Ltd, priority 2004, dated 2009) come the findings set out here.

The target of one data set is T1, Human PPARα (Homo sapiens, UniProt Q07869).
T1 construct: expressed in transfected cells; host or cells: 293-T cells, transient transfection
T1 sequence (Q07869 239-466 limits assumed): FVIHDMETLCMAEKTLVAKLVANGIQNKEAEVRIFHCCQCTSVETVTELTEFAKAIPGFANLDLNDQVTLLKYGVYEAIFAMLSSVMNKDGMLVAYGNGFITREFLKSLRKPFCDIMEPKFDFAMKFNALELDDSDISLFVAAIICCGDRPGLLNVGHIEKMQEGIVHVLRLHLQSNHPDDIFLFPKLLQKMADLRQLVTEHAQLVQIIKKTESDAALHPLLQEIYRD
The data set is described as follows: Activation of human PPARα, GAL4 chimeric receptor luciferase reporter assay in transiently transfected 293-T cells. Format: cell-based. Particulars: for Photon number (×10^4) / Increased multiple vs control: compounds 10 μM, PPARα; for Photon number (×10^4): luciferase 24 h after administration; for Increased multiple vs control: vs DMSO control. Here is the method: (§1) The compounds were screened with respect to their functional effect of instantaneous transfection in 293-T cells, so that their capabilities of activating PPAR subtypes were determined. A chimeric receptor system as established in advance was used to compare the influence of receptor subtypes on the transcription activity of same target gene. Human PPARα and PPARγ ligand-binding domains were fused respectively with yeast transcription factor GAL4 DNA-binding domains, and then linked to expression vector pM of mammal, to thereby construct two plasmids pM-hPPARα/GAL4 and pM-PPARγ/GAL4. GAL4 DNA-binding area was linked to pB4-tk-luc, to thereby construct pB4-RES-tk-luc (a firefly luciferase reporter gene comprising GAL4 DNA-binding site). pRL-CMV-Rluc was used as an internal control to normalize transfection efficiency and endogenous influence.
293-T cells were incubated in a 48-well plate at a cell density of 2-4×10^4/well, using a phenol red-free and antibiotic-free 1640 medium containing 10% defatted fetal calf serum (FCS). After culturing for 48 h, the medium was replaced with a phenol red-free and antibiotic-free 1640 medium containing 5% defatted FCS, and then three plasmids pM-hPPAR/GAL4, pB4-RES-tk-luc and pRL-CMV-Rluc pertaining to two subtypes were respectively co-transfected into the 293-T cells. The strength of luciferase was measured at the time of 24 h after administration, with 0.2% DMSO as a blank control.
Background: A reporter such as luciferase makes a cellular process visible.

The target in the next data set is T2, Human PPARγ (Homo sapiens, UniProt P37231).
T2 construct: expressed in transfected cells; host or cells: 293-T cells, transient transfection
T2 sequence (P37231 238-503 limits assumed): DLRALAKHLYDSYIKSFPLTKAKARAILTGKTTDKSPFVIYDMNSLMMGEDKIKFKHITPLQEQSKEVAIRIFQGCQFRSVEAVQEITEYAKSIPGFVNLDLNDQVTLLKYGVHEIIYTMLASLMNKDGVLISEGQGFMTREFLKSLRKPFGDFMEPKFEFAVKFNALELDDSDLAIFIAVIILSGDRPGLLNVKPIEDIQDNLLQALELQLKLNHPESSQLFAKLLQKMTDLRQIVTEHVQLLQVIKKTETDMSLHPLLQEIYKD
The data set is described as follows: Activation of human PPARγ, GAL4 chimeric receptor luciferase reporter assay in transiently transfected 293-T cells. It counts as cell-based.
Text: as §1, with “A” for “The compounds were screened with respect to their functional effect of instantaneous transfection in 293-T cells, so that their capabilities of activating PPAR subtypes were determined. A”
The strength of luciferase was measured at the time of 24 h after administration, with 0.2% DMSO as a blank control.

Regarding `Cc1cccc(N2CCN([C@@H](Cc3ccc(OCCc4nc(-c5ccccc5)oc4C)cc3)C(=O)O)CC2)c1` [Example 1, (2S)-3-{4-[2-(5-methyl-2-phenyl-1,3-oxazol-4-yl)-ethoxy]-phenyl}-2-(4-m-tolyl-piperazin-1-yl)-propionic acid], on Human PPARα, the “Photon number (×10^4)” value is on record as 11.3 ×10^4 and the “Increased multiple vs control” value turned out to be 5.3.

Consider `Cc1oc(-c2ccccc2)nc1CCOc1ccc(C[C@@H](C(=O)O)N2CCN(S(=O)(=O)c3ccccc3F)CC2)cc1` [Example 3, (2S)-2-[4-(2-fluoro-benzenesulfonyl)-piperazin-1-yl]-3-{4-[2-(5-methyl-2-phenyl-1,3-oxazol-4-yl)-ethoxy]-phenyl}-propionic acid], for which the melting point (commonly the temperature of the solid-liquid transition) is 170 to 172 °C.

`Cc1oc(-c2ccccc2)nc1CCOc1ccc(C[C@@H](C(=O)O)N2CCN(S(=O)(=O)c3ccc(F)cc3)CC2)cc1` [Example 4, (2S)-2-[4-(4-fluoro-benzenesulfonyl)-piperazin-1-yl]-3-{4-[2-(5-methyl-2-phenyl-1,3-oxazol-4-yl)-ethoxy]-phenyl}-propionic acid] yielded a melting point of 198 to 200 °C. For the same molecule, the “Photon number (×10^4)” value at Human PPARγ (compounds 10 μM, PPARγ, luciferase 24 h after administration) is recorded as 2.8 ×10^4. The “Increased multiple vs control” value on Human PPARγ (compounds 10 μM, PPARγ, vs control) came out at 2.0. Also, at Human PPARα, the “Photon number (×10^4)” value is listed as 6.8 ×10^4 and the “Increased multiple vs control” value is listed as 3.2.

In turn, `Cc1oc(-c2ccccc2)nc1CCOc1ccc(C[C@@H](C(=O)O)N2CCN(S(=O)(=O)c3ccccc3[N+](=O)[O-])CC2)cc1` [Example 6, (2S)-2-[4-(2-nitro-benzenesulfonyl)-piperazin-1-yl]-3-{4-[2-(5-methyl-2-phenyl-1,3-oxazol-4-yl)-ethoxy]-phenyl}-propionic acid] registered a melting point of 171 to 173 °C. For the same molecule, a half-maximal response on Human PPARγ (activation of PPARγ) (EC50) required 3.2 µM. The EC50 (usually the concentration giving half of the maximal effect) at Human PPARα (activation of PPARα) was 1.05 µM.

As to `Cc1oc(-c2ccccc2)nc1CCOc1ccc(C[C@@H](C(=O)O)N2CCN(c3cccc(Cl)c3)CC2)cc1` [Example 7, (2S)-2-[4-(m-chloro-phenyl)-piperazin-1-yl]-3-{4-[2-(5-methyl-2-phenyl-1,3-oxazol-4-yl)-ethoxy]-phenyl}-propionic acid], the melting point fell in the range of 138 to 139 °C.

`Cc1oc(-c2ccccc2)nc1CCOc1ccc(C[C@@H](C(=O)O)N2CCN(c3ccccc3)CC2)cc1` [Example 8, (2S)-3-{4-[2-(5-methyl-2-phenyl-1,3-oxazol-4-yl)-ethoxy]-phenyl}-2-(4-phenyl-piperazin-1-yl)-propionic acid] came in with a melting point of 218 to 220 °C. Moreover, at Human PPARα, the “Photon number (×10^4)” value was 13.2 ×10^4 and the “Increased multiple vs control” value came to 6.3.

The molecule `Cc1oc(-c2ccccc2)nc1CCOc1ccc(C[C@@H](C(=O)O)N2CCN(c3ccccc3)CC2)cc1Br` [Example 10, (2S)-3-{3-bromo-4-[2-(5-methyl-2-phenyl-1,3-oxazol-4-yl)-ethoxy]-phenyl}-2-(4-phenylpiperazin-1-yl)-propanoic acid] showed a melting point of 220 to 222 °C.
